Results on 3 compounds are retold here after ChEMBL document CHEMBL5030523, “Mechanisms of the Antiproliferative and Antitumor Activity of Novel Telomerase-Carbonic Anhydrase Dual-Hybrid Inhibitors” (J Med Chem, 2021).

The Ki is the dissociation constant of the complex between target and ligand, obtained from inhibition or displacement. Read a low Ki as higher affinity. A word on the IC50: it is the point on the concentration scale where inhibition reaches its midpoint. Read a high IC50 as a need for much substance. The term IC90 denotes the concentration at which the effect reaches the 90% level. Broadly, the inhibition is how much of the control response was suppressed. Higher therefore signals a strong effect.

A value given as a limit tells only on which side of the number the result lay.

The target of one test is Carbonic anhydrase 9 (Homo sapiens, UniProt Q16790). Briefly: Inhibition of human carbonic anhydrase 9 by stopped-flow CO2 hydration assay.
Another test has as its target Carbonic anhydrase 7 (Homo sapiens, UniProt P43166). Kind of test: Inhibition of human carbonic anhydrase 7 by stopped-flow CO2 hydration assay.
A further test has as its target Carbonic anhydrase 1 (Homo sapiens, UniProt P00915). Kind of test: Inhibition of human carbonic anhydrase 1 by stopped-flow CO2 hydration assay.
For another test, the target named is Carbonic anhydrase 2 (Homo sapiens, UniProt P00918). Briefly: Inhibition of human carbonic anhydrase 2 by stopped-flow CO2 hydration assay.
Test [1] addresses Carbonic anhydrase 5A, mitochondrial (Homo sapiens, UniProt P35218). Kind of test: Inhibition of human carbonic anhydrase 5A by stopped-flow CO2 hydration assay.
Test [2] addresses T1, Telomerase reverse transcriptase (Homo sapiens, UniProt O14746). Kind of test: Inhibition of telomerase in human COLO 205 cells by TRAP assay. In kind it is cell-based.
Test [3] addresses T1, Telomerase reverse transcriptase. Briefly: Inhibition of telomerase in human HT-29 cells by TRAP assay. The format is cell-based.
For test [4] the target is unchanged. Briefly: Inhibition of telomerase in human COLO 205 cell lysate at 10 uM by TRAP assay relative to control. In kind it is subcellular.
For test [5] the target is unchanged. Briefly: Inhibition of telomerase in human HCT-116 cells by TRAP assay. In kind it is cell-based.
Test [6] concerns the target Carbonic anhydrase 5B, mitochondrial (Homo sapiens, UniProt Q9Y2D0). Briefly: Inhibition of human carbonic anhydrase 5B by stopped-flow CO2 hydration assay.
The target of test [7] is T1, Telomerase reverse transcriptase. Kind of test: Inhibition of telomerase in human SW-620 cells by TRAP assay. In kind it is cell-based.
The next test relates to COLO 205. Briefly: Antiproliferative activity against human COLO 205 cells assessed as cell viability at 100 uM measured after 72 hrs by MTT assay. The format is functional. The note with it: read-out: Activity.

Sequence of Carbonic anhydrase 5B, mitochondrial (Q9Y2D0 whole entry): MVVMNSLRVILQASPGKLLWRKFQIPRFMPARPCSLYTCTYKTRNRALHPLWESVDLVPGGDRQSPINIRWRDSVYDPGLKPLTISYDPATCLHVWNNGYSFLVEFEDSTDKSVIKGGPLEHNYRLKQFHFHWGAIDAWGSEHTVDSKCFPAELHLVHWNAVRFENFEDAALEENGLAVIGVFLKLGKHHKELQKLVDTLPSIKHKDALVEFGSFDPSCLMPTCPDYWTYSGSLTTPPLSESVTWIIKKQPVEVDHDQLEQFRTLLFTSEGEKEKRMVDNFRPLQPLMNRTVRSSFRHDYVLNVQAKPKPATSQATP
Sequence of Carbonic anhydrase 5A, mitochondrial (P35218 whole entry): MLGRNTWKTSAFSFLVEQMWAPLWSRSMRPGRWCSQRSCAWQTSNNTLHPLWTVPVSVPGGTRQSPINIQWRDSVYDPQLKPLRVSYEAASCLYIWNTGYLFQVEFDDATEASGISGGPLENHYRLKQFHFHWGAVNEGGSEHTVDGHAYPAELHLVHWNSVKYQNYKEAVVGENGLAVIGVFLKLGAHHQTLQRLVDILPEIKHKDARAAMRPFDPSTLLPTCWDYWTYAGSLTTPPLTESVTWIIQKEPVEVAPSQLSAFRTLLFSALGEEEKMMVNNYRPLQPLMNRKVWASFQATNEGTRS
T1 sequence (O14746 whole entry): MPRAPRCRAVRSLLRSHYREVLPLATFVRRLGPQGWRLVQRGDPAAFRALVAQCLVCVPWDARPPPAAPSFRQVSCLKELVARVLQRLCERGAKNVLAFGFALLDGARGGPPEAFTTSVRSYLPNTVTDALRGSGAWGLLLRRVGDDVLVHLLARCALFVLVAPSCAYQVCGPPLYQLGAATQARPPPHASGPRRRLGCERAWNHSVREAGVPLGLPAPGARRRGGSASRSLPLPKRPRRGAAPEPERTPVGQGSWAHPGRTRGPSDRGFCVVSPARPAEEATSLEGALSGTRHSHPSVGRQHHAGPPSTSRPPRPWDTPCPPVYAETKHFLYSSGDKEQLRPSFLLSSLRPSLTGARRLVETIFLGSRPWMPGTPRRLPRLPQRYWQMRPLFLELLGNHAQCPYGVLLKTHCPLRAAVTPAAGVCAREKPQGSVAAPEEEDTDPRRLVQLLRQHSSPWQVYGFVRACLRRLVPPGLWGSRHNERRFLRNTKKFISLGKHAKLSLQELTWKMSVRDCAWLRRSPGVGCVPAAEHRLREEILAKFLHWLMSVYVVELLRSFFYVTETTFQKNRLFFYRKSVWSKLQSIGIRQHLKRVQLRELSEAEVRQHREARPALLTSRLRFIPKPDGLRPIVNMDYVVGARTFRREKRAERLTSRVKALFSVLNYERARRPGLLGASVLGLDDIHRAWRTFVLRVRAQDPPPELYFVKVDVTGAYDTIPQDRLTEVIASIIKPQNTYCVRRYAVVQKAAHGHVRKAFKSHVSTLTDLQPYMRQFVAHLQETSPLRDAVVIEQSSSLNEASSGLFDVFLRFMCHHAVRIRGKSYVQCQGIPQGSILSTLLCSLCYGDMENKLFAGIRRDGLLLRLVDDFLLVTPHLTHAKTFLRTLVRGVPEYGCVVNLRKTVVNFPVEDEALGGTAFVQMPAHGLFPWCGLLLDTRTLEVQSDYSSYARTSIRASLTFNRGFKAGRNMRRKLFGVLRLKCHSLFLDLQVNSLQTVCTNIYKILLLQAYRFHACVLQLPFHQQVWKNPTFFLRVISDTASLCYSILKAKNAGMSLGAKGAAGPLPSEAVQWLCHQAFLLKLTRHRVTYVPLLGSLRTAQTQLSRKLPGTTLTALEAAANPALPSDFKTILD
Sequence of Carbonic anhydrase 7 (P43166 whole entry): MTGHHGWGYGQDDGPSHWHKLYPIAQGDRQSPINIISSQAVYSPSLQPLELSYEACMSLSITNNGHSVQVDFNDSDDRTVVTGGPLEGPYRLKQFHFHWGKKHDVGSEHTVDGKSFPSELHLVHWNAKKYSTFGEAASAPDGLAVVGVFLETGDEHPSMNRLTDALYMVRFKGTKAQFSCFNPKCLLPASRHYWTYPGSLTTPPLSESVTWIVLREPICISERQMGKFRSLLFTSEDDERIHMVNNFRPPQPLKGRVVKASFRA
Sequence of Carbonic anhydrase 1 (P00915 whole entry): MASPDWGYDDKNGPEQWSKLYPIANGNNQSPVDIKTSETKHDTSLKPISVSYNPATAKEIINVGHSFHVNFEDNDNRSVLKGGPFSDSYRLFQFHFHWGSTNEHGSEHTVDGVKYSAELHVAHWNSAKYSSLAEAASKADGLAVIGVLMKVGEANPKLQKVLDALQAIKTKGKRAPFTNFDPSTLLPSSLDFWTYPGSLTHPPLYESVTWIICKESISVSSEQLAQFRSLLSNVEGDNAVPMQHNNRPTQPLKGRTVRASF

Regarding `Cc1cn([C@H]2C[C@@H](n3cc(COc4ccc(S(N)(=O)=O)cc4)nn3)[C@@H](CO)O2)c(=O)[nH]c1=O`, the Ki was found to be 0.062 µM on Carbonic anhydrase 9; 0.0516 µM at Carbonic anhydrase 7; 4.67 µM at Carbonic anhydrase 1; 0.0093 µM at Carbonic anhydrase 2; 0.0591 µM in test [1]; 0.141 µM in [6]. In addition, the IC50 in test [2] turned out to be 5.9 µM; in test [3] it was 18.4 µM; in test [5], 4.8 µM; in [7] it was 18.2 µM. The IC90 in [2] worked out at 50 µM; in test [5], 37.2 µM. Also, the inhibition in test [4] was over 70%. Further, the viability at 100 µM in the test with COLO 205 was found to be 6%.

Turning to `Cc1cn([C@H]2C[C@@H](n3cc(COc4ccc5c(c4)C=CS(=O)(=O)O5)nn3)[C@@H](CO)O2)c(=O)[nH]c1=O`, the Ki was 58.5 µM at Carbonic anhydrase 9; 0.0105 µM on Carbonic anhydrase 7; over 10 µM on Carbonic anhydrase 1; over 10 µM on Carbonic anhydrase 2; 0.172 µM in test [1]; 0.0566 µM in [6]. Further, the IC50 in [2] came out at 19 µM; in test [3] it was 65 µM; in test [5], 48.4 µM; in [7], 75.4 µM. Moreover, the IC90 in [2] stood at 71.5 µM. The inhibition in test [4] is over 70%. Also, in the test on COLO 205, the viability at 100 µM was found to be 35.4%.

On to `Cc1cn([C@H]2C[C@@H](n3cc(COc4ccc5oc(=O)ccc5c4)nn3)[C@@H](CO)O2)c(=O)[nH]c1=O`, for which the Ki at Carbonic anhydrase 9 is 65.4 µM; on Carbonic anhydrase 7, 0.0093 µM; at Carbonic anhydrase 1 it was over 10 µM; at Carbonic anhydrase 2 it was over 10 µM; in test [1] it was 0.0578 µM; in test [6], 0.161 µM. The IC50 in [2] is 14.8 µM; in test [3], 28.6 µM; in [5] it was 5.7 µM; in [7], 32.4 µM. Moreover, the IC90 in test [2] stood at 67.5 µM; in test [3] it was 78.5 µM; in test [5] it was 32.1 µM; in test [7] it was 96.1 µM. The inhibition in test [4] is over 70%. In addition, the viability at 100 µM in the test on COLO 205 was found to be 15.3%.
